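Cells were grown in 96-well plates and exposed to each compound for 48 hours at five concentrations; endpoints were interpolated linearly between bracketing concentrations, or set to the highest concentration if not reached. The concentration for 50% growth inhibition is given as GI50. TGI is the concentration that stops growth completely.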

Results on twelve molecules are retold here after PubChem BioAssay (NCI).

Among the test systems are A549 NSCLC; HOP-62 NSCLC; HT29 colon; M14 melanoma; MALME-3M melanoma; MOLT-4 leukemia; OVCAR-3 ovarian; SK-MEL-5 melanoma; SN12C renal; SW-620 colon.
What all share (assay): inhibition of tumour cell growth, NCI panel, 48 h

For `CCCCCCCCC/C=C1/CC(CO)(COC(=O)C2CCCCC2)OC1=O` (configuration not stated), the TGI with A549 NSCLC, in the test on HOP-62 NSCLC, in the test on HT29 colon, in the test on M14 melanoma, in the test on MALME-3M melanoma and with MOLT-4 leukemia was greater than 100 µM in each case. The TGI in the test with OVCAR-3 ovarian, in the test on SK-MEL-5 melanoma, with SN12C renal and with SW-620 colon was greater than 100 µM each time.

`Cc1[nH]c(-c2ccccc2)c(O)c1C(=O)OC1CC(C)CCC1C(C)C` (configuration not stated): the TGI in the test with A549 NSCLC stood at 26.2 µM; in the test with HOP-62 NSCLC it was 28.6 µM; with HT29 colon, 27.5 µM; in the test on M14 melanoma, 29 µM; in the test with MALME-3M melanoma it was 32.9 µM; in the test with MOLT-4 leukemia it was 28.1 µM. Also, the TGI stood at 25.2 µM in the test on OVCAR-3 ovarian, 30.2 µM in the test with SK-MEL-5 melanoma, 29.1 µM in the test with SN12C renal and 29.2 µM in the test with SW-620 colon.

On to `Clc1ccc(CCNCCNC2(c3cc4ccccc4s3)CCCCC2)cc1Cl`, for which the TGI in the test with A549 NSCLC worked out at 3.81 µM; in the test with HOP-62 NSCLC it was 2.6 µM; in the test with HT29 colon it was 3.59 µM; with M14 melanoma, 3.97 µM; in the test with MALME-3M melanoma, 3.44 µM; in the test on MOLT-4 leukemia it was 4.53 µM. The TGI in the test with OVCAR-3 ovarian amounted to 2.91 µM; in the test on SK-MEL-5 melanoma, 3.12 µM; in the test with SN12C renal it was 3.53 µM; with SW-620 colon, 3.48 µM.

As for `CCc1cc2c(cc1O)CC[C@@H]1[C@@H]2CC[C@]2(C)[C@@H](O)CC[C@@H]12`, the TGI in the test with A549 NSCLC was found to be 21.3 µM; in the test on HOP-62 NSCLC, 19.8 µM; in the test with HT29 colon, 29.3 µM; with M14 melanoma it was 19.8 µM; with MALME-3M melanoma, 12.5 µM; in the test on MOLT-4 leukemia, 20 µM. The TGI with OVCAR-3 ovarian turned out to be 11.5 µM; in the test with SK-MEL-5 melanoma, 20.4 µM; with SN12C renal, 20 µM; in the test on SW-620 colon, 16.6 µM. The GI50 with OVCAR-3 ovarian was 2.94 µM; with SN12C renal, 7.3 µM.

Regarding `Nc1ccc2ncc(NCc3ccc(F)cc3)nc2c1`, the TGI with A549 NSCLC, in the test on HOP-62 NSCLC, in the test with HT29 colon, in the test on M14 melanoma, in the test with MALME-3M melanoma and in the test with MOLT-4 leukemia was greater than 100 µM throughout. Further, the TGI in the test on OVCAR-3 ovarian, in the test with SK-MEL-5 melanoma, with SN12C renal and with SW-620 colon was greater than 100 µM throughout.

Turning to `O=C(O)Cn1cnc2c(=O)[nH]c(Nc3ccccc3)nc21`, the TGI in the test with A549 NSCLC, in the test with HOP-62 NSCLC, in the test on HT29 colon, with M14 melanoma, with MALME-3M melanoma and in the test with MOLT-4 leukemia was greater than 100 µM in each case. Further, the TGI with OVCAR-3 ovarian, in the test with SK-MEL-5 melanoma, with SN12C renal and in the test on SW-620 colon was greater than 100 µM each time.

As for `CC(=O)[C@H]1CC[C@@H]2[C@]1(C)CC=C1[C@]23C=C[C@]2(C[C@@H](O)CC[C@]12C)C(C(=O)O)C3C(=O)O` (some centres not stated), the TGI in the test on A549 NSCLC, in the test with HOP-62 NSCLC, in the test on HT29 colon, in the test on M14 melanoma, with MALME-3M melanoma and with MOLT-4 leukemia was greater than 100 µM in each case. Moreover, the TGI in the test with OVCAR-3 ovarian, in the test on SK-MEL-5 melanoma, in the test with SN12C renal and with SW-620 colon was greater than 100 µM throughout.

As to `COc1ccc(/C=N/NC(=O)NCCNCCO)cc1`, the TGI in the test with A549 NSCLC, in the test with HOP-62 NSCLC, with HT29 colon, in the test with M14 melanoma, in the test with MALME-3M melanoma and with MOLT-4 leukemia was greater than 100 µM in each case. Also, the TGI with OVCAR-3 ovarian, with SK-MEL-5 melanoma, in the test with SN12C renal and with SW-620 colon was greater than 100 µM throughout.

On to `CC(=O)Nc1ccc(S(=O)(=O)Nc2cnc3ccccc3n2)cc1`, for which the TGI with A549 NSCLC, in the test with HOP-62 NSCLC, in the test on HT29 colon, in the test on M14 melanoma, in the test on MALME-3M melanoma and in the test on MOLT-4 leukemia was greater than 100 µM each time. In addition, the TGI in the test with OVCAR-3 ovarian, with SK-MEL-5 melanoma, in the test on SN12C renal and in the test on SW-620 colon was greater than 100 µM throughout.

Consider `O=C(NC1CCCCC1)N1CCNC1=S`, for which the TGI in the test with A549 NSCLC, in the test with HOP-62 NSCLC, with HT29 colon, in the test on M14 melanoma, with MALME-3M melanoma and with MOLT-4 leukemia was greater than 100 µM throughout. Moreover, the TGI with OVCAR-3 ovarian, in the test with SK-MEL-5 melanoma, in the test on SN12C renal and with SW-620 colon was greater than 100 µM throughout.

Consider `Cc1cc2nc3c(C)c4ccccc4c(C)n3c2cc1C`, for which the TGI is greater than 10 µM in the test with A549 NSCLC; greater than 10 µM in the test with HOP-62 NSCLC; greater than 10 µM with HT29 colon; greater than 10 µM with M14 melanoma; 6.66 µM in the test with MALME-3M melanoma; greater than 10 µM in the test with MOLT-4 leukemia. Besides, the TGI in the test with OVCAR-3 ovarian was 7.8 µM; in the test on SK-MEL-5 melanoma it was greater than 10 µM; in the test on SN12C renal it was greater than 10 µM; with SW-620 colon, greater than 10 µM.

Take `COC(=O)[C@@]1(Cc2ccc(OC(C)=O)cc2)Cc2cc3ccccc3n2N1`: the TGI in the test on A549 NSCLC, in the test on HOP-62 NSCLC, with HT29 colon, in the test on M14 melanoma, in the test with MALME-3M melanoma and in the test on MOLT-4 leukemia was greater than 100 µM throughout. Besides, the TGI was greater than 100 µM with OVCAR-3 ovarian, 37.1 µM with SK-MEL-5 melanoma, greater than 100 µM in the test on SN12C renal and greater than 100 µM in the test with SW-620 colon.
